Measurements: DBAASP
Values after ≈ are worked out from the molar mass of the structure shown. Values joined by “and” are separate entries in the source; they are usually repeats but may differ in a detail not shown here. Equal entries are not always repeated.

Key:
Test in all cases: ≥ marks a high value that may be exact or a test limit, other limits are often not marked, values filed in µg/mL are converted to µM
Escherichia coli W160-37 = tested on: Escherichia coli W160-37
Staphylococcus aureus = tested on: Staphylococcus aureus
Pseudomonas aeruginosa = tested on: Pseudomonas aeruginosa
[1] = tested on: Escherichia coli ATCC 25922
[2] = tested on: Staphylococcus aureus ATCC 29213
[3] = tested on: Klebsiella pneumoniae ATCC 700603
[4] = tested on: Pseudomonas aeruginosa ATCC 27853
[5] = tested on: Staphylococcus aureus ATCC 33591
[6] = tested on: Staphylococcus aureus ATCC 700699
[7] = tested on: Enterococcus faecium ATCC 700221
[8] = tested on: Candida albicans ATCC 200955
[9] = tested on: Pseudomonas aeruginosa PAO1
Escherichia coli K-12 = tested on: Escherichia coli K-12
Klebsiella pneumoniae = tested on: Klebsiella pneumoniae
[10] = tested on: Staphylococcus aureus NCTC 8325-4
[11] = tested on: Staphylococcus aureus ATCC 25923
Escherichia coli ML-35p = tested on: Escherichia coli ML-35p
Escherichia coli MG1655 = tested on: Escherichia coli MG1655
[12] = tested on: Staphylococcus aureus ATCC 33592
[13] = tested on: Bacillus subtilis ATCC 6051
[14] = tested on: Staphylococcus aureus ATCC 43300
[15] = tested on: Klebsiella pneumoniae ATCC 13883
[16] = tested on: Candida albicans ATCC 90028
Acinetobacter baumannii = tested on: Acinetobacter baumannii
[17] = tested on: Acinetobacter baumannii ATCC 19606
[18] = tested on: Cryptococcus neoformans ATCC 208821
[19] = tested on: Klebsiella pneumoniae ATCC BAA-2146

Row | SMILES | MIC (Pseudomonas aeruginosa) | MIC [1] | MIC [3] | MIC [4] | MIC (Klebsiella pneumoniae) | MIC [13] | MIC [14] | MIC [15] | MIC [16] | MIC (Acinetobacter baumannii) | MIC [17] | MIC [18] | MIC [19] | further results
1 | CC[C@H](C)[C@H](NC(=O)[C@H](Cc1c[nH]c2ccccc12)NC(=O)[C@H](CCCCN)NC(=O)[C@H](CO)NC(=O)[C@H](CC(C)C)NC(=O)[C@H](Cc1ccccc1)NC(=O)[C@@H](NC(=O)[C@H](CCCCN)NC(=O)[C@H](CC(C)C)NC(=O)[C@H](CC(C)C)NC(=O)[C@H](CCCCN)NC(=O)[C@@H]1CCCN1)[C@@H](C)O)C(=O)NCC(=O)O [PKLLKTFLSKWIG] | 19.6 µM (≈ 30 µg/mL) |  |  |  |  |  |  |  |  |  |  |  |  | MIC (Escherichia coli W160-37): 4.57 µM (≈ 7 µg/mL); MIC (Staphylococcus aureus): 3.27 µM (≈ 5 µg/mL)
2 | CC[C@H](C)[C@H](NC(=O)[C@H](CC(=O)O)NC(=O)[C@H](CCCCN)NC(=O)[C@H](C)NC(=O)[C@H](CC(C)C)NC(=O)CNC(=O)[C@H](CCCCN)NC(=O)[C@H](CC(C)C)NC(=O)[C@@H](NC(=O)[C@H](CC(=O)O)NC(=O)[C@@H](NC(=O)[C@@H](NC(=O)CN)C(C)C)C(C)C)[C@@H](C)CC)C(=O)N[C@@H](C)C(=O)NCC(=O)N[C@@H](Cc1cnc[nH]1)C(=O)N[C@@H](CC(C)C)C(=O)N[C@@H](C)C(=O)N[C@@H](CO)C(=O)N[C@@H](CCCCN)C(=O)N[C@H](C(=O)N[C@@H](CCSC)C(=O)N[C@@H](CC(N)=O)C(=O)N[C@@H](CCCCN)C(=O)N[C@@H](CC(C)C)C(N)=O)C(C)C [GVVDILKGLAKDIAGHLASKVMNKL] |  | 12.5 µM (≈ 32.4 µg/mL) | 50 µM (≈ 130 µg/mL) | 100 µM (≈ 259 µg/mL) |  |  |  |  |  |  |  |  |  | MIC [2]: 50 µM (≈ 130 µg/mL); MIC [5]: 25 µM (≈ 64.8 µg/mL); MIC [6]: ≥ 50 µM
3 | CC[C@H](C)[C@H](NC(=O)[C@H](CCCCN)NC(=O)[C@H](CCCN=C(N)N)NC(=O)[C@@H]1CCCN1C(=O)[C@@H](NC(=O)[C@H](CC(C)C)NC(=O)[C@H](CCCCN)NC(=O)[C@H](CC(C)C)NC(=O)[C@@H](N)Cc1ccccc1)[C@@H](C)CC)C(=O)N[C@H](C(=O)N[C@H](C(=O)N[C@@H](C)C(=O)N[C@@H](CC(C)C)C(N)=O)[C@@H](C)O)C(C)C [FLKLIPRKIVTAL] |  |  |  |  |  |  |  |  |  |  |  |  |  | MIC (Escherichia coli W160-37): ≥ 265 µM
4 | CC[C@H](C)[C@H](NC(=O)[C@H](Cc1c[nH]c2ccccc12)NC(=O)[C@H](CCCCN)NC(=O)[C@H](CC(C)C)NC(=O)[C@H](CC(C)C)NC(=O)CN)C(=O)N[C@@H](CCCCN)C(=O)N[C@@H](CCCCN)C(=O)N[C@@H](CC(C)C)C(=O)N[C@@H](CC(C)C)C(N)=O [GLLKWIKKLL] |  | 3.2 µM (≈ 3.87 µg/mL) |  | 9.5 µM (≈ 11.5 µg/mL) |  |  |  |  |  |  |  |  |  | MIC [7]: 3.2 µM (≈ 3.87 µg/mL); MIC [5]: 2.5 µM (≈ 3.03 µg/mL); MIC [8]: 3.2 µM (≈ 3.87 µg/mL)
5 | CC(C)C[C@H](NC(=O)[C@H](CCCCN)NC(=O)[C@H](CCCCN)NC(=O)[C@H](CC(C)C)NC(=O)[C@H](CC(C)C)NC(=O)[C@H](CCCCN)NC(=O)[C@H](CCCCN)NC(=O)[C@@H](N)CC(C)C)C(N)=O [LKKLLKKL] |  |  |  |  | > 500 µM |  |  |  |  |  |  |  |  | MIC [9]: > 500 µM; MIC (Escherichia coli K-12): ≥ 500 µM; MIC [10]: ≥ 500 µM
6 | CC[C@H](C)[C@H](NC(=O)[C@H](CCCCN)NC(=O)[C@H](CCCCN)NC(=O)[C@H](CC(C)C)NC(=O)[C@H](CC(C)C)NC(=O)CN)C(=O)N[C@@H](CCCCN)C(=O)N[C@H](C(=O)N[C@@H](CC(C)C)C(=O)N[C@@H](CC(C)C)C(N)=O)[C@@H](C)O [GLLKKIKTLL] |  |  |  | 56.8 µM (≈ 63.9 µg/mL) |  |  |  |  |  |  |  |  |  | MIC [7]: ≥ 171 µM; MIC [5]: ≥ 512 µM; MIC [11]: 19.5 µM (≈ 22 µg/mL); MIC [8]: ≥ 56.8 µM
7 | CC(=O)NCC(=O)N[C@@H](Cc1ccccc1)C(=O)N[C@@H](CCCN=C(N)N)C(=O)N[C@@H](CCCCN)C(=O)N[C@@H](Cc1ccccc1)C(=O)N[C@@H](Cc1cnc[nH]1)C(=O)N[C@@H](CCCCN)C(=O)N[C@@H](Cc1ccccc1)C(=O)N[C@@H](Cc1c[nH]c2ccccc12)C(=O)N[C@@H](C)C(N)=O [GFRKFHKFWA] |  |  |  |  |  |  |  |  |  |  |  |  |  | MIC (Escherichia coli ML-35p): ≥ 500 µM; MIC [6]: ≥ 500 µM
8 | CC[C@H](C)[C@H](NC(=O)[C@H](Cc1c[nH]c2ccccc12)NC(=O)[C@H](CO)NC(=O)CNC(C)=O)C(=O)N[C@@H](CCCCN)C(=O)N[C@@H](CCCN=C(N)N)C(=O)N[C@@H](CC(C)C)C(=O)N[C@@H](CC(N)=O)C(=O)N[C@@H](CO)C(=O)N[C@@H](Cc1c[nH]c2ccccc12)C(=O)N[C@@H](CC(C)C)C(=O)N[C@@H](CCCN=C(N)N)C(=O)N[C@@H](CCCCN)C(N)=O [GSWIKRLNSWLRK] |  |  |  |  |  |  |  |  |  |  |  |  |  | MIC (Escherichia coli MG1655): 4 µM and 8 µM; MIC [12]: ≥ 38.9 µM
9 | CC[C@H](C)[C@@H]1NC(=O)CNC(=O)[C@H](CCCN=C(N)N)NC(=O)[C@H](Cc2ccc(O)cc2)NC(=O)[C@@H]2CSSC[C@H](NC1=O)C(=O)N[C@@H](Cc1ccc(O)cc1)C(=O)N[C@@H](CCCN=C(N)N)C(=O)N[C@@H](CCCN=C(N)N)C(=O)N[C@H](C(=O)N[C@@H](CCCN=C(N)N)C(=O)O)CSSC[C@H](NC(=O)[C@H](Cc1c[nH]c3ccccc13)NC(=O)[C@@H](N)CCCCN)C(=O)N[C@@H](Cc1ccccc1)C(=O)N[C@@H](C)C(=O)N[C@@H](C(C)C)C(=O)N2 [KWCFAVCYRGICYRRCR] | 0.229 µM (≈ 0.499 µg/mL) | 0.0572 µM (≈ 0.125 µg/mL) | 0.229 µM (≈ 0.499 µg/mL) | 0.115 µM (≈ 0.25 µg/mL) | 3.66 µM (≈ 7.99 µg/mL) | 0.0137 µM (≈ 0.0299 µg/mL) | 0.229 µM (≈ 0.499 µg/mL) | 0.0572 µM (≈ 0.125 µg/mL) | 1.83 µM (≈ 3.99 µg/mL) | 0.0572 µM (≈ 0.125 µg/mL) | 0.0275 µM (≈ 0.0599 µg/mL) | 0.115 µM (≈ 0.25 µg/mL) | 0.229 µM (≈ 0.499 µg/mL) | 
10 | CC[C@H](C)[C@@H]1NC(=O)CNC(=O)[C@H](CCCN=C(N)N)NC(=O)[C@H](Cc2ccc(O)cc2)NC(=O)[C@@H]2CSSC[C@H](NC1=O)C(=O)N[C@@H](Cc1ccc(O)cc1)C(=O)N[C@@H](CCCN=C(N)N)C(=O)N[C@@H](C)C(=O)N[C@H](C(=O)N[C@@H](CCCN=C(N)N)C(=O)O)CSSC[C@H](NC(=O)[C@H](Cc1c[nH]c3ccccc13)NC(=O)[C@@H](N)CCCCN)C(=O)N[C@@H](Cc1ccccc1)C(=O)N[C@@H](CCCN=C(N)N)C(=O)N[C@@H](C(C)C)C(=O)N2 [KWCFRVCYRGICYRACR] | 1.83 µM (≈ 3.99 µg/mL) | 0.115 µM (≈ 0.25 µg/mL) | 0.916 µM (≈ 2 µg/mL) | 1.83 µM (≈ 3.99 µg/mL) | 7.33 µM (≈ 16 µg/mL) | 0.0137 µM (≈ 0.0299 µg/mL) | 1.83 µM (≈ 3.99 µg/mL) | 0.115 µM (≈ 0.25 µg/mL) | 0.916 µM (≈ 2 µg/mL) | 0.115 µM (≈ 0.25 µg/mL) | 0.115 µM (≈ 0.25 µg/mL) | 0.115 µM (≈ 0.25 µg/mL) | 0.458 µM (≈ 0.998 µg/mL) | 
11 | CC(C)[C@@H]1NC(=O)[C@H](CCCN=C(N)N)NC(=O)[C@H](Cc2ccccc2)NC(=O)[C@@H](NC(=O)[C@H](Cc2c[nH]c3ccccc23)NC(=O)[C@@H](N)CCCCN)CSSC[C@@H](C(=O)N[C@@H](CCCN=C(N)N)C(=O)O)NC(=O)[C@H](CCCN=C(N)N)NC(=O)[C@H](CCCN=C(N)N)NC(=O)[C@H](Cc2ccc(O)cc2)NC(=O)[C@@H]2CSSC[C@H](NC1=O)C(=O)N[C@@H](Cc1ccc(O)cc1)C(=O)N[C@@H](CCCN=C(N)N)C(=O)NCC(=O)NCC(=O)N2 [KWCFRVCYRGGCYRRCR] | 1.81 µM (≈ 3.99 µg/mL) | 0.113 µM (≈ 0.25 µg/mL) | 0.226 µM (≈ 0.499 µg/mL) | 0.452 µM (≈ 0.998 µg/mL) | 3.62 µM (≈ 7.99 µg/mL) | 0.113 µM (≈ 0.25 µg/mL) | 1.81 µM (≈ 3.99 µg/mL) | 0.113 µM (≈ 0.25 µg/mL) | 3.62 µM (≈ 7.99 µg/mL) | 0.226 µM (≈ 0.499 µg/mL) | 0.226 µM (≈ 0.499 µg/mL) | 0.452 µM (≈ 0.998 µg/mL) | 0.904 µM (≈ 2 µg/mL) | 
12 | CC[C@H](C)[C@@H]1NC(=O)CNC(=O)[C@H](CCCN=C(N)N)NC(=O)[C@H](Cc2ccc(O)cc2)NC(=O)[C@@H](NC(=O)[C@@H](NC(=O)[C@H](CCCN=C(N)N)NC(=O)[C@H](Cc2ccccc2)NC(=O)[C@H](C)NC(=O)[C@H](Cc2c[nH]c3ccccc23)NC(=O)[C@@H](N)CCCCN)C(C)C)CSSC[C@@H](C(=O)N[C@@H](Cc2ccc(O)cc2)C(=O)N[C@@H](CCCN=C(N)N)C(=O)N[C@@H](CCCN=C(N)N)C(=O)N[C@@H](C)C(=O)N[C@@H](CCCN=C(N)N)C(=O)O)NC1=O [KWAFRVCYRGICYRRAR] | 3.63 µM (≈ 7.99 µg/mL) | 0.113 µM (≈ 0.25 µg/mL) | 0.454 µM (≈ 0.999 µg/mL) | 0.907 µM (≈ 2 µg/mL) | > 7.26 µM | 0.0567 µM (≈ 0.125 µg/mL) | 3.63 µM (≈ 7.99 µg/mL) | 0.454 µM (≈ 0.999 µg/mL) | 3.63 µM (≈ 7.99 µg/mL) | 0.227 µM (≈ 0.5 µg/mL) | 0.113 µM (≈ 0.25 µg/mL) | 0.454 µM (≈ 0.999 µg/mL) | 0.454 µM (≈ 0.999 µg/mL) | 
